In the supplement of paper PMC10307832:

Assays:
Experiment in all cases: relative viability (nuclei count vs DMSO), 5 days (fraction); higher = more cells survive
[1] = compound: Cc1ccc2nc(NCCN)c3ncc(C)n3c2c1 + Cc1cc(Nc2cc(N3CCN(C)CC3)nc(Sc3ccc(NC(=O)C4CC4)cc3)n2)n[nH]1 [Tozasertib] (partner 0.1 µM)
Summary of the method: (§1)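 Cells from lung cancer lines were seeded into 1536-well plates and, one day later, dosed by pin tool. Treatments were either a single drug or a fixed dose of an anchor drug with five library-drug doses (not always all listed) in √10 steps. After 5 days, nuclei were stained in a one-step fixation (final 0.05% Triton X-100, 1% formaldehyde, 1 ug/ml Hoechst) and counted on 4× images, and relative viability is the treated-to-vehicle nuclei ratio, as the median of duplicate plates.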

[2] = compound: O=C(/C=C/c1ccccc1)NC(NC(=S)Nc1cccc2cccnc12)C(Cl)(Cl)Cl [Salubrinal] + CC1(C)CCC(c2ccc(Cl)cc2)=C(CN2CCN(c3ccc(C(=O)NS(=O)(=O)c4ccc(N[C@H](CCN5CCOCC5)CSc5ccccc5)c(S(=O)(=O)C(F)(F)F)c4)cc3)CC2)C1 [Navitoclax] (partner 0.5 µM)
Summary of the method: as §1

[3] = compound: O=C(/C=C/c1ccccc1)NC(NC(=S)Nc1cccc2cccnc12)C(Cl)(Cl)Cl [Salubrinal] + C[C@@H](Oc1cc(-c2cnn(C3CCNCC3)c2)cnc1N)c1c(Cl)ccc(F)c1Cl [Crizotinib] (partner 1 µM)
Summary of the method: as §1

[4] = compound: O=C(/C=C/c1ccccc1)NC(NC(=S)Nc1cccc2cccnc12)C(Cl)(Cl)Cl [Salubrinal] + Nc1nc2[nH]cc(CCc3ccc(C(=O)N[C@@H](CCC(=O)O)C(=O)O)cc3)c2c(=O)[nH]1 [Pemetrexed] (partner 0.2 µM)
Summary of the method: as §1

| Cell Line | relative viability ([1]; first compound 0.04 µM) | relative viability ([1]; first compound 0.1265 µM) | relative viability ([1]; first compound 0.4 µM) | relative viability ([1]; first compound 1.265 µM) | relative viability ([1]; first compound 4 µM) | relative viability ([2]; first compound 0.08 µM) | relative viability ([2]; first compound 0.253 µM) | relative viability ([2]; first compound 0.8 µM) | relative viability ([2]; first compound 2.53 µM) | relative viability ([2]; first compound 8 µM) | relative viability ([3]; first compound 0.08 µM) | relative viability ([3]; first compound 0.253 µM) | relative viability ([3]; first compound 0.8 µM) | relative viability ([3]; first compound 2.53 µM) | relative viability ([3]; first compound 8 µM) | relative viability ([4]; first compound 0.08 µM) | relative viability ([4]; first compound 0.253 µM) | relative viability ([4]; first compound 0.8 µM) | relative viability ([4]; first compound 2.53 µM) | relative viability ([4]; first compound 8 µM) |
| --- | --- | --- | --- | --- | --- | --- | --- | --- | --- | --- | --- | --- | --- | --- | --- | --- | --- | --- | --- | --- |
| NCI-H1437 | 0.412 | 0.399 | 0.39 | 0.364 | 0.368 | 1.14 | 1.06 | 1.16 | 1.08 | 1.09 | 0.975 | 0.77 | 1.02 | 0.909 | 0.758 | 0.413 | 0.273 | 0.292 | 0.322 | 0.297 |
| COR-L23 | 0.202 | 0.243 | 0.218 | 0.135 | 0.173 | 1.2 | 0.952 | 1.15 | 0.927 | 0.865 | 0.749 | 0.775 | 0.699 | 0.563 | 0.492 | 0.203 | 0.205 | 0.194 | 0.206 | 0.196 |
| ABC-1 | 0.171 | 0.15 | 0.171 | 0.187 | 0.22 | – | – | – | – | – | 1.23 | 0.919 | 1.22 | 1.25 | 1.02 | – | – | – | – | – |
| SK-MES-1 | 0.898 | 0.904 | 0.921 | 0.929 | 0.678 | 1.39 | 1.12 | 1.33 | 1.24 | 1.12 | 1.05 | 1 | 1 | 1.02 | 0.908 | 0.993 | 0.784 | 1.11 | 0.896 | 0.914 |
| NCI-H838 | 0.259 | 0.287 | 0.278 | 0.304 | 0.26 | 1.35 | 1.21 | 1.22 | 1.15 | 1.23 | 1.08 | 0.719 | 0.854 | 0.951 | 0.82 | 0.253 | 0.231 | 0.257 | 0.267 | 0.23 |
| SW 900 | 0.491 | 0.513 | – | 0.471 | 0.612 | – | – | – | – | – | – | – | – | – | – | 0.508 | 0.423 | 0.505 | 0.485 | 0.468 |
| A549 | – | – | – | – | – | 1.4 | 1.11 | 1.22 | 1.21 | 1.21 | 0.864 | 0.491 | 0.902 | 0.702 | 0.695 | – | – | – | – | – |
| A-427 | 0.229 | 0.21 | 0.185 | 0.212 | 0.196 | 0.942 | 1.01 | 1.08 | 0.886 | 0.926 | 0.896 | 0.899 | 1.05 | 0.85 | 0.895 | 0.957 | 0.964 | 1.17 | 1.03 | 1.1 |
| NCI-H1792 | – | – | – | – | – | 0.745 | – | 1.26 | 0.669 | 0.458 | 1.14 | – | 1.33 | 0.929 | 0.859 | 1.07 | – | 1.24 | 0.795 | 0.572 |
| LCLC-97TM1 | 0.201 | 0.215 | 0.177 | 0.218 | 0.187 | 0.368 | 0.648 | 0.464 | – | 0.433 | 0.382 | 0.507 | 0.446 | – | 0.364 | 0.169 | 0.218 | 0.19 | 0.158 | 0.158 |
